According to patent US9278982B2, “Targeting human thymidylate kinase induces DNA repair toxicity in malignant tumor cells” (NATIONAL YANG-MING UNIVERSITY, priority 2010, dated 2016):
“Also recorded” adds a separate entry of the source.

Tests used:
panel of cell lines = assay: Doxorubicin sensitization, MTS viability assay, summary over the panel of cell lines; assay type: cell-based, human; details: all these cell lines; 72 h pre-treatment
Method: (§1) FIG. 16. In vitro and in vivo effect of YMU1 on doxorubicin sensitization. (A) A panel of cell lines were pre-treated with vehicle, YMU1 (compound 21), D6 (ethyl 4-(2-chloroacetyl)piperazine-1-carboxylate) or D7 (compound 28) for 3 days and were exposed to different concentration of doxorubicin for 4 h. […] The enhancement (fold) of doxorubicin sensitivity in each cell line was calculated. Data represent mean±s.d., n=3; each experiment was quadruplex. Inset indicates the IC50 value of doxorubicin in various cell lines. […] Following overnight culture, cells were refreshed with growth medium. After 14 days of culture, colonies were fixed, stained by crystal violet and counted. (C) HCT-116 p53^−/− cells were subcutaneously implanted in the right flank of Balb/c nude mice (each experimental group n=8). Arrow indicated the time of stopping drug treatment. The tumor volume was estimated as described in Methods of the Invention section. (D) After 2 weeks recovered from treatment, mice were sacrificed for tumor weight measurement. Data represent mean±s.e.m; **, P<0.01 by a two-tailed Student's t-test. (E) Ki 67 proliferation marker staining of tumor shown in left panel. Scale bar, 50 μm. (F) Model of doxorubicin sensitization by YMU1 in malignant cancer cells. Both R2/R1 and TMPK are recruited to the site of doxorubicin-induced double-strand breaks, where dATP, dGTP, dCTP, dTTP and dUTP are site-specific synthesized. Inhibition of TMPK decreases dTTP formation at DNA damage sites, causing futile DNA repair due to dUTP incorporation.
(§2) Next, various human cancer cell lines were treated with YMU1, D6 or D7 for 72 h to test the potential of TMPK inhibitor in doxorubicin sensitization. After exposure to different concentration of doxorubicin for 4 h, cells were refreshed for viability analysis after 2 days and the IC50 value for doxorubicin in each of the cell lines was determined (FIG. 16A and Table 2).
The ability of YMU1 to sensitize non-tumorigenic mammary cycling H184B5F5/M10, MCF10A, primary human mammary epithelial (HMEC) and primary renal epithelial (HREC) cells and IMR-90 embryonic lung fibroblasts to doxorubicin was much weaker.
(§3) Cells plated into a 96-well plate (10^3 cells/well) were treated and cell viability was measured by MTS assay (Promega) (Cory et al., 1991). An annexin V-fluorescein isothiocyanate (FITC) apoptosis kit (Calbiochem) was used to detect apoptosis. The cell cycle analysis was performed by staining cells with propidium iodide (PI) for fluorescence-activated cell sorter (FACS) analysis with CellQuest software.

TMPK [1] = molecular target: T1, TMPK (Homo sapiens, UniProt P23919); assay: Luciferase-coupled TMPK assay; assay type: biochemical; parameters: GST (N, cleaved yes); made in house; host or cells: E. coli JM109 (pGEX-2T-hTMPK); details: purified hTMPK protein (0.5 μg), 10 min preincubation
T1 sequence (P23919 1-212): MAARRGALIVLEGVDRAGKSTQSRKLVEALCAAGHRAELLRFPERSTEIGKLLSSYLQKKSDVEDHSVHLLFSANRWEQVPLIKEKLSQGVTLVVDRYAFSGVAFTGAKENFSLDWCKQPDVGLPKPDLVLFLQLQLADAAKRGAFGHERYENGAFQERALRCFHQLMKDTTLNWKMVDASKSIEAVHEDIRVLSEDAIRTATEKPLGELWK
Method: FIG. 12. Identification of a novel hTMPK inhibitor. (A) A screen of TMPK inhibitor by luciferase-coupled assay. (B) The chemical structures of YMU1 (compound 21) and related molecules. (C) Effect of YMU1 and derivative compounds on hTMPK inhibition using purified hTMPK protein (0.5 μg) with 10 min preincubation prior to reaction using luciferase-coupled TMPK analysis. (D) Effect of YMU1 on activity of purified TMPK (0.5 μg) and GST-hTK1 protein (5 μg) with 10 min preincubation prior to reaction. Data represent mean±s.d. (n=4) (E) Molecular models of the TMPK-YMU1 complex. Left panel: TMPK/ATP/Mg+2; right panel: TMPK/YMU1. The TMPK is represented in surface electrostatic potential (upper) and structural ribbon (lower). ATP and YMU1 are shown in green and blue stick, respectively, with colored atom (O, red; S, yellow; P, orange). TMP is shown in white backbone and Mg+2 in purple. Arrow indicates the position of Asp15.
Based on the functional requirement of TMPK in DNA repair specifically in tumor cells with elevated level of R2 expression, we searched for inhibitors of hTMPK that might be useful in selectively sensitizing tumor cells to doxorubicin. […] The synthetic procedure and structural elucidation of YMU1 (compound 21) are described in the Methods of the Invention section of the application.
The TMPK reaction was started by adding purified hTMPK in 50 μl of TMPK assay buffer (100 mM Tris-HCl, pH 7.5, 100 mM KCl, 10 mM MgCl2, 50 μM ATP and 100 μM dTMP) in 96 wells plate at 25° C. for 10 min and terminated by adding 200 μl of DTNB (100 μM), followed by transferring 10 μl of reaction solution to a white 96-wellplate containing 90 μl of luciferase assay buffer (50 mM Glycine, 0.5 mM EDTA and 5 mM EDTA, pH 7.0, 0.1 μg of luciferase, 50 μM luciferin and 0.1% BSA). The luminescence was measured with a luminescence counter (Packard).

TMPK [2] = molecular target: T1, TMPK; assay: In vitro TMPK inhibitory activity of TMPK inhibitor derivatives (inhibition yield); assay type: biochemical; parameters: GST (N, cleaved yes); made in house; host or cells: E. coli JM109 (pGEX-2T-hTMPK), inferred; details: 2 μM; n=3 or 6; read-out: inhibition yield, normalized to compound 21 (YMU1) = 100%
Excerpt: Chemical structures of the different TMPK inhibitor derivatives tested for in vitro TMPK inhibitory activity and in vivo doxorubicin sensitization activity (in MDA-MB231 cells) are depicted below.

MDA-MB231 = assay: Doxorubicin sensitization, MTS viability assay; assay type: cell-based, human; details: MDA-MB231 cell treatment, compound at 2 μM
Method: as §1, §2, §3

CL-1-0 = assay: Doxorubicin sensitization, MTS viability assay; assay type: cell-based, human; details: Homo sapiens, CL1-0, vehicle 72 h, doxorubicin 4 h, viability after 2 days, read-out: IC50 of doxorubicin treatment, Vehicle
Method: as §1, §2, §3

Capan1 = assay: Doxorubicin sensitization, MTS viability assay; assay type: cell-based, human; details: Homo sapiens, CAPAN-1, vehicle 72 h, doxorubicin 4 h, viability after 2 days, read-out: IC50 of doxorubicin treatment, Vehicle
Method: as §1, §2, §3

H1299 = assay: Doxorubicin sensitization, MTS viability assay; assay type: cell-based, human; details: Homo sapiens, NCI-H1299, vehicle 72 h, doxorubicin 4 h, viability after 2 days, read-out: IC50 of doxorubicin treatment, Vehicle
Method: as §1, §2, §3

H184B5F5/M10 = assay: Doxorubicin sensitization, MTS viability assay; assay type: cell-based, human; details: Homo sapiens, vehicle 72 h, doxorubicin 4 h, viability after 2 days, read-out: IC50 of doxorubicin treatment, Vehicle
Method: as §1, §2, §3

HCC1037 = assay: Doxorubicin sensitization, MTS viability assay; assay type: cell-based, human; details: Homo sapiens, vehicle 72 h, doxorubicin 4 h, viability after 2 days, read-out: IC50 of doxorubicin treatment, Vehicle
Method: as §1, §2, §3

HCT-116p53+/+ = assay: Doxorubicin sensitization, MTS viability assay; assay type: cell-based, human; details: Homo sapiens, vehicle 72 h, doxorubicin 4 h, viability after 2 days, read-out: IC50 of doxorubicin treatment, Vehicle
Method: as §1, §2, §3

HCT-116p53−/− = assay: Doxorubicin sensitization, MTS viability assay; assay type: cell-based, human; details: Homo sapiens, vehicle 72 h, doxorubicin 4 h, viability after 2 days, read-out: IC50 of doxorubicin treatment, Vehicle
Method: as §1, §2, §3

HMEC = assay: Doxorubicin sensitization, MTS viability assay; assay type: cell-based, human; details: Homo sapiens, vehicle 72 h, doxorubicin 4 h, viability after 2 days, read-out: IC50 of doxorubicin treatment, Vehicle
Method: as §1, §2, §3

HREC = assay: Doxorubicin sensitization, MTS viability assay; assay type: cell-based, human; details: Homo sapiens, vehicle 72 h, doxorubicin 4 h, viability after 2 days, read-out: IC50 of doxorubicin treatment, Vehicle
Method: as §1, §2, §3

HT-29 = assay: Doxorubicin sensitization, MTS viability assay; assay type: cell-based, human; details: Homo sapiens, vehicle 72 h, doxorubicin 4 h, viability after 2 days, read-out: IC50 of doxorubicin treatment, Vehicle
Method: as §1, §2, §3

IMR-90 = assay: Doxorubicin sensitization, MTS viability assay; assay type: cell-based, human; details: Homo sapiens, vehicle 72 h, doxorubicin 4 h, viability after 2 days, read-out: IC50 of doxorubicin treatment, Vehicle
Method: as §1, §2, §3

MCF-10A = assay: Doxorubicin sensitization, MTS viability assay; assay type: cell-based, human; details: Homo sapiens, vehicle 72 h, doxorubicin 4 h, viability after 2 days, read-out: IC50 of doxorubicin treatment, Vehicle
Method: as §1, §2, §3

MDA-MB468 = assay: Doxorubicin sensitization, MTS viability assay; assay type: cell-based, human; details: Homo sapiens, MDA-MB-468, vehicle 72 h, doxorubicin 4 h, viability after 2 days, read-out: IC50 of doxorubicin treatment, Vehicle
Method: as §1, §2, §3

SaoS2 = assay: Doxorubicin sensitization, MTS viability assay; assay type: cell-based, human; details: Homo sapiens, SAOS-2, vehicle 72 h, doxorubicin 4 h, viability after 2 days, read-out: IC50 of doxorubicin treatment, Vehicle
Method: as §1, §2, §3

U2OS = assay: Doxorubicin sensitization, MTS viability assay; assay type: cell-based, human; details: Homo sapiens, vehicle 72 h, doxorubicin 4 h, viability after 2 days, read-out: IC50 of doxorubicin treatment, Vehicle
Method: as §1, §2, §3

CCOC(=O)N1CCN(C(=O)COc2nsc3nc(C)cc(C)c23)CC1 [compound 28, Ethyl 4-(2-(4,6-dimethylisothiazolo[5,4-b]pyridin-3-yloxy)acetyl)piperazine-1-carboxylate]
doxorubicin sensitization effect (panel of cell lines): had no doxorubicin sensitization effect
melting point: 88 to 90 °C
inhibition against hTMPK (TMPK [1]; listed as D7): Neither D6 (as the piperazine fragment of YMU1) nor D7 (as the O-alkylation isomer of YMU1) showed any inhibition; also recorded: do not inhibit TMPK
inhibition at 2 µM (TMPK [2]): 14.7%

Cc1cc(C)c2c(OCC(=O)N3CCOCC3)nsc2n1 [compound 27, 2-(4,6-Dimethylisothiazolo[5,4-b]pyridin-3-yloxy)-1-morpholinoethanone]
melting point: 153 to 155 °C
inhibition at 2 µM (TMPK [2]): 16%

CC(C)(C)OC(=O)N1CCN(C(=O)Cn2sc3ccccc3c2=O)CC1 [compound 12, Tert-butyl 4-(2-(3-oxobenzo[d]isothiazol-2(3H)-yl)acetyl)piperazine-1-carboxylate]
enhancement on doxorubicin sensitization (MDA-MB231): 30 fold
inhibition at 2 µM (TMPK [2]): 124%

CCOC(=O)N1CCN(C(=O)CI)CC1 [D6, ethyl 4-(2-iodoacetyl)piperazine-1-carboxylate]
doxorubicin sensitization effect (panel of cell lines): had no doxorubicin sensitization effect
inhibition against hTMPK (TMPK [1]): Neither D6 (as the piperazine fragment of YMU1) nor D7 (as the O-alkylation isomer of YMU1) showed any inhibition; also recorded: do not inhibit TMPK

COC(=O)Cn1sc2nc(C)cc(C)c2c1=O [compound 7, Methyl 2-(4,6-dimethyl-3-oxoisothiazolo[5,4-b]pyridin-2(3H)-yl)acetate]
melting point: 89 to 91 °C
inhibition at 2 µM (TMPK [2]): 98.3%

O=C(Cn1sc2ccccc2c1=O)N1CCNCC1 [compound 10, 2-(2-Oxo-2-(piperazin-1-yl)ethyl)benzo[d]isothiazol-3(2H)-one]
enhancement on doxorubicin sensitization (MDA-MB231): had no effect
inhibition against hTMPK (TMPK [1]): considerable inhibitory function
inhibition at 2 µM (TMPK [2]): 96.8%

Cc1cc(C)c2c(=O)n(CC(=O)N3CCOCC3)sc2n1 [compound 19, 4,6-Dimethyl-2-(2-morpholino-2-oxoethyl)isothiazolo[5,4-b]pyridin-3(2H)-one]
enhancement on doxorubicin sensitization (MDA-MB231): had no effect
inhibition at 2 µM (TMPK [2]): 100%

COc1cccc2c1C(=O)c1c(O)c3c(c(O)c1C2=O)C[C@@](O)(C(=O)CO)C[C@@H]3O[C@H]1C[C@H](N)[C@H](O)[C@H](C)O1 [doxorubicin, reference compound]
IC50 (CL-1-0): 4.9 ± 0.2 µM
IC50 (Capan1): 1.13 ± 0.02 µM
IC50 (H1299): 7.19 ± 0.77 µM
IC50 (H184B5F5/M10): 4.15 ± 0.06 µM
IC50 (HCC1037): 5.52 ± 0.39 µM
IC50 (HCT-116p53+/+): 2.66 ± 0.49 µM
IC50 (HCT-116p53−/−): 4.1 ± 0.01 µM
IC50 (HMEC): 23.6 ± 1.23 µM
IC50 (HREC): 22.1 ± 1.18 µM
IC50 (HT-29): 12.1 ± 1.64 µM
IC50 (IMR-90): 14.2 ± 3.21 µM
IC50 (MCF-10A): 5.22 ± 0.39 µM
IC50 (MDA-MB468): 0.25 ± 0.08 µM
IC50 (SaoS2): 7.83 ± 0.02 µM
IC50 (U2OS): 4.58 ± 0.14 µM

Cc1cc(C)c2c(=O)[nH]sc2n1 [compound 4, 4,6-Dimethylisothiazolo[5,4-b]pyridin-3(2H)-one]
inhibition against hTMPK (TMPK [1]; listed as D3): weak inhibitory activity; also recorded: do not inhibit TMPK
inhibition at 2 µM (TMPK [2]): 28%
